Assay results from patent US10041937B2, “Macrophage identification agent, and identification method, sorting method, evaluation method, screening method and kit using the macrophage identifier agent” (CANON KABUSHIKI KAISHA, priority 2013, dated 2018).

Tested on: M1 macrophages and M2 macrophages differentiated from mouse bone marrow cells
Assay: Subtype identification by staining and flow cytometry of M1 and M2 macrophages differentiated from mouse bone marrow cells
Type: cell-based, Balb/c mouse
Procedure, shortened: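 Balb/c mouse bone marrow cells were differentiated to macrophages with 50 ng/mL M-CSF over two 3–4-day periods, then polarized for 3 days to M1 (interferon-γ plus polyliposaccharide) or M2 (IL-4). Live cells (aqua dye-negative) were analysed by flow cytometry; resolution R = |FM1−FM2|/(WM1+WM2) from histogram peak positions and widths indexed subtype discrimination.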

[1] = R=|FM1−FM2|/(WM1+WM2), compound 1 μM
[2] = fluorescence intensity at peak top of histogram, compound 1 μM, 37° C., 30 minutes
[3] = M1 vs M2 macrophages from mouse bone marrow cells, general formula (6) dyes (Table 7)
[4] = class based on resolution R, general formula (6) dyes (Table 7)
[5] = mouse bone marrow-derived M1 macrophages, channel listed per compound, general formula (6) dyes (Table 7)
[6] = mouse bone marrow-derived M2 macrophages, channel listed per compound, general formula (6) dyes (Table 7)

## COc1ccc(N2c3ccc(/C=C/C4=[N+](CCC(=O)O)c5ccc6ccccc6c5C4(C)C)cc3C3CCCC32)cc1 (centres unmarked) [(60)]
[1]
  Resolution ratio R: 0.621
[2]
  Peak position of M1 macrophage: 4.55
  Peak position of M2 macrophage: 7.65
Rated from resolution R
  Evaluation of macrophage subtype identification: A (The compound is very good in the subtype identification (namely, the resolution R is 0.5 or more))

## CCOC(=O)CN1C(=O)/C(=C\c2ccc3c(c2)C2CCCC2N3c2ccc(OC)cc2)SC1=S (centres unmarked) [(21)]
[1]
  Resolution ratio R: 0.351
[2]
  Peak position of M1 macrophage: 40.0
  Peak position of M2 macrophage: 20.3
Rated from resolution R
  Evaluation of macrophage subtype identification: B (the compound is good in the subtype identification (namely, the resolution R is 0.15 or more and less than 0.5))

## COC(=O)C(C)N1C(=O)/C(=C\c2ccc3c(c2)C2CCCC2N3c2ccc(OC)cc2)SC1=S (centres unmarked) [(7)]
[1]
  Resolution ratio R: 0.567
[2]
  Peak position of M1 macrophage: 65.4
  Peak position of M2 macrophage: 23.6
Rated from resolution R
  Evaluation of macrophage subtype identification: A (The compound is very good in the subtype identification (namely, the resolution R is 0.5 or more))

## CCN1C(=O)S/C(=c2/s/c(=C/c3ccc4c(c3)C3CCCC3N4c3ccc(OC)cc3)c(=O)n2CC(=O)O)C1=O (centres unmarked) [(44)]
[1]
  Resolution ratio R: 0.330
[2]
  Peak position of M1 macrophage: 24.5
  Peak position of M2 macrophage: 12.9
Rated from resolution R
  Evaluation of macrophage subtype identification: B (the compound is good in the subtype identification (namely, the resolution R is 0.15 or more and less than 0.5))

## CCOC(=O)Cn1c(=O)/c(=C\c2ccc3c(c2)C2CCCC2N3Cc2ccccc2)s/c1=C1/SC(=O)N(CC)C1=O (centres unmarked) [(42)]
[1]
  Resolution ratio R: 0.616
[2]
  Peak position of M1 macrophage: 4.19
  Peak position of M2 macrophage: 1.79
Rated from resolution R
  Evaluation of macrophage subtype identification: A (The compound is very good in the subtype identification (namely, the resolution R is 0.5 or more))

## CSc1cccc(N2c3ccc(/C=C4/SC(=S)N(CC(=O)O)C4=O)cc3C3CCCC32)c1 (centres unmarked) [(50)]
[1]
  Resolution ratio R: 1.025
[2]
  Peak position of M1 macrophage: 3.24
  Peak position of M2 macrophage: 0.99
Rated from resolution R
  Evaluation of macrophage subtype identification: A (The compound is very good in the subtype identification (namely, the resolution R is 0.5 or more))

## CCCCCCCCN1C(=O)/C(=c2\s/c(=C/c3ccc4c(c3)C3CCCC3N4c3ccc(C=C(c4ccccc4)c4ccccc4)cc3)c(=O)n2CC(=O)O)SC1=S (centres unmarked) [(38)]
[1]
  Resolution ratio R: 0.724
[2]
  Peak position of M1 macrophage: 3.74
  Peak position of M2 macrophage: 1.63
Rated from resolution R
  Evaluation of macrophage subtype identification: A (The compound is very good in the subtype identification (namely, the resolution R is 0.5 or more))

## CCN1c2ccc(/C=C/c3sc4ccccc4[n+]3CC(=O)O)cc2C2CCCC21 (centres unmarked) [(65)]
[1]
  Resolution ratio R: 0.236
[2]
  Peak position of M1 macrophage: 2.96
  Peak position of M2 macrophage: 4.67
Rated from resolution R
  Evaluation of macrophage subtype identification: B (the compound is good in the subtype identification (namely, the resolution R is 0.15 or more and less than 0.5))

## CCN1c2ccc(/C=C3/SC(=S)N(CC(=O)O)C3=O)cc2C2CCCC21 (centres unmarked) [(26)]
[1]
  Resolution ratio R: 0.202
[2]
  Peak position of M1 macrophage: 3.51
  Peak position of M2 macrophage: 4.49
Rated from resolution R
  Evaluation of macrophage subtype identification: B (the compound is good in the subtype identification (namely, the resolution R is 0.15 or more and less than 0.5))

## O=C(O)CCN1C(=O)/C(=C\c2ccc3c(c2)C2CCCC2N3c2ccc(C=C(c3ccccc3)c3ccccc3)cc2)SC1=S (centres unmarked) [(32)]
[1]
  Resolution ratio R: 0.476
[2]
  Peak position of M1 macrophage: 88.7
  Peak position of M2 macrophage: 155
Rated from resolution R
  Evaluation of macrophage subtype identification: B (the compound is good in the subtype identification (namely, the resolution R is 0.15 or more and less than 0.5))

## CCC1=C(C)C2=C(C)c3c(C)c(CC)c(C)n3[B-](C#C[Si](C)(C)C)(C#C[Si](C)(C)C)[N+]2=C1C [compound (154)]
M1 vs M2 macrophages from mouse bone marrow cells, general formula (11) dyes (Table 9)
  Resolution ratio R: 0.160
Class based on resolution R, general formula (11) dyes (Table 9)
  Evaluation of macrophage subtype identification: B (the compound is good in the subtype identification (namely, the resolution R is 0.15 or more and less than 0.5))
Mouse bone marrow-derived M1 macrophages, channel listed per compound, general formula (11) dyes (Table 9)
  Peak position of M1 macrophage: 1.25
Mouse bone marrow-derived M2 macrophages, channel listed per compound, general formula (11) dyes (Table 9)
  Peak position of M2 macrophage: 1.63

## CCN1/C(=C\C=C\c2ccc3ccccc3[n+]2CC)C=Cc2ccccc21 [(104)]
[3]
  Resolution ratio R: 0.698
[4]
  Evaluation of macrophage subtype identification: A (The compound is very good in the subtype identification (namely, the resolution R is 0.5 or more))
[5]
  Peak position of M1 macrophage: 95.26
[6]
  Peak position of M2 macrophage: 197.19
Subtype strongly stained, general formula (6) dyes (Table 7)
  Selectivity: M2

## CCN(CC)c1ccc2cc(-c3nc4cc(C(=O)O)ccc4o3)c(=O)oc2c1 [(127)]
M1 vs M2 macrophages from mouse bone marrow cells, general formula (10) dyes (Table 8)
  Resolution ratio R: 0.381
Class based on resolution R, general formula (10) dyes (Table 8)
  Evaluation of macrophage subtype identification: B (the compound is good in the subtype identification (namely, the resolution R is 0.15 or more and less than 0.5))
Mouse bone marrow-derived M1 macrophages, channel listed per compound, general formula (10) dyes (Table 8)
  Peak position of M1 macrophage: 3.99
Mouse bone marrow-derived M2 macrophages, channel listed per compound, general formula (10) dyes (Table 8)
  Peak position of M2 macrophage: 6.00

## CC1(C)C(/C=C/C=C/C=C/C=C2\N(CCCCCC(=O)[O-])c3ccccc3C2(C)C)=[N+](CCCCCC(=O)[O-])c2ccccc21.[Na+] [(91)]
[3]
  Resolution ratio R: 0.476
[4]
  Evaluation of macrophage subtype identification: B (the compound is good in the subtype identification (namely, the resolution R is 0.15 or more and less than 0.5))
[5]
  Peak position of M1 macrophage: 2.96
[6]
  Peak position of M2 macrophage: 13.89

## COc1ccc(N2c3ccc(/C=c4/s/c(=C5/SC(=S)N(Cc6ccccc6)C5=O)n(CC(=O)O)c4=O)cc3C3CCCC32)cc1 (centres unmarked) [(54)]
[1]
  Resolution ratio R: 0.531
[2]
  Peak position of M1 macrophage: 154
  Peak position of M2 macrophage: 211
Rated from resolution R
  Evaluation of macrophage subtype identification: A (The compound is very good in the subtype identification (namely, the resolution R is 0.5 or more))

## CC1(C)C(/C=C/C=C/C=C/C=C2\N(CCCCS(=O)(=O)[O-])c3ccccc3C2(C)C)=[N+](CCCCS(=O)(=O)[O-])c2ccccc21.[Na+] [(88)]
[3]
  Resolution ratio R: 0.241
[4]
  Evaluation of macrophage subtype identification: B (the compound is good in the subtype identification (namely, the resolution R is 0.15 or more and less than 0.5))
[5]
  Peak position of M1 macrophage: 0.95
[6]
  Peak position of M2 macrophage: 1.48
